Paper PMC8119466, “A screen of FDA-approved drugs identifies inhibitors of protein tyrosine phosphatase 4A3 (PTP4A3 or PRL-3)” (Scientific Reports, 2021)
Counter-ions that a name gives are not always drawn. Like-named read-outs stand apart in the source and are kept apart here.

Assays:
Format in all cases: biochemical
recombinant PRL-1 = biological target: T1, recombinant PRL-1 (Homo sapiens, UniProt Q93096); test: In vitro phosphatase assay (DiFMUP hydrolysis), PRL-1; note: test concentration or dose not given here
T1 construct: 6xHis (N, cleaved yes); made in house; host or cells: E. coli One Shot BL21 Star
T1 sequence (Q93096 1-173): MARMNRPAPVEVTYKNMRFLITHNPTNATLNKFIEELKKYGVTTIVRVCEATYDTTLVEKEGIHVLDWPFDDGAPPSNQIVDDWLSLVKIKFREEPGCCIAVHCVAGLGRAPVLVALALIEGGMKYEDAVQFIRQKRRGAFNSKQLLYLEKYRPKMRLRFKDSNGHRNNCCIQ

recombinant PRL-2 = biological target: T2, recombinant PRL-2 (Homo sapiens, UniProt Q12974); test: In vitro phosphatase assay (DiFMUP hydrolysis), PRL-2;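 note: PRL-2 activity read as DiFMUP hydrolysis after 20 min at room temperature with drug, enzyme first pre-reduced at 4 °C for 20 min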
T2 construct: 6xHis (N, cleaved yes); made in house; host or cells: E. coli One Shot BL21 Star
T2 sequence (Q12974 1-167): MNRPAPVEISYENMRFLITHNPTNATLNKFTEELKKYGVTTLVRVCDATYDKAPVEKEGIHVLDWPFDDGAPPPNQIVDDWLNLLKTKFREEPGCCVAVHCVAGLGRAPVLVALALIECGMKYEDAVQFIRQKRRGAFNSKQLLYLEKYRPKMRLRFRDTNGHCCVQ

recombinant PRL-3 = biological target: T3, recombinant PRL-3 (Homo sapiens, UniProt O75365); test: In vitro phosphatase assay (DiFMUP hydrolysis), PRL-3; note: test concentration or dose not given here
T3 construct: 6xHis (N, cleaved yes); made in house; host or cells: E. coli One Shot BL21 Star

[1] = FDA-approved drug screen, activity compared to DMSO

T3 sequence (O75365 whole entry): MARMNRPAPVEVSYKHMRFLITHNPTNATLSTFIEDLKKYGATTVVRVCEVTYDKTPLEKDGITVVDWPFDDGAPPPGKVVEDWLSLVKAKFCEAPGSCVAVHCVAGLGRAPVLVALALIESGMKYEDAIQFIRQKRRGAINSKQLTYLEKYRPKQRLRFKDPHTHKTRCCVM

Compound | % Phosphatase Activity (compared to DMSO) PRL-1 (recombinant PRL-1; [1]) | % Phosphatase Activity (compared to DMSO) PRL-2 (recombinant PRL-2; [1]) | % Phosphatase Activity (compared to DMSO) PRL-3 (recombinant PRL-3; [1]) | % Phosphatase Activity (compared to DMSO) PRL-1 (recombinant PRL-1) | % Phosphatase Activity (compared to DMSO) PRL-2 (recombinant PRL-2) | % Phosphatase Activity (compared to DMSO) PRL-3 (recombinant PRL-3)
CCOC(=O)N[C@@H]1CC[C@@H]2[C@@H](C1)C[C@H]1C(=O)O[C@H](C)[C@H]1[C@H]2/C=C/c1ccc(-c2cccc(F)c2)cn1 [Vorapaxar] | 95% | 73% | 86% |  |  | 
O=C(CCCCCCC(=O)Nc1ccccc1)NO [Vorinostat (SAHA, MK0683)] | 98% | 89% | 92% |  |  | 
CCn1c(=O)c(-c2cc[nH]n2)cc2c(C)nc(N)nc21 [Voxtalisib (XL765, SAR245409)] | 7254% | 5267% | 4492% |  |  | 
Cc1cccc(C)c1N=C1NCCCS1 [Xylazine HCl] |  |  |  | 110% | 112% | 91%
Cc1cc(C(C)(C)C)cc(C)c1CC1=NCCN1 [Xylometazoline HCl] | 98% | 117% | 88% |  |  | 
O=C[C@H](O)[C@@H](O)[C@H](O)CO [Xylose] | 115% | 102% | 68% |  |  | 
COCC[n+]1c2c(n(Cc3cnccn3)c1C)C(=O)c1ccccc1C2=O.[Br-] [YM155 (Sepantronium Bromide)] | 11% | 13% | 5% |  |  | 
COc1cc(C(=O)NS(=O)(=O)c2ccccc2C)ccc1Cc1cn(C)c2ccc(NC(=O)OC3CCCC3)cc12 [Zafirlukast] | 68% | 66% | 48% |  |  | 
Nc1ccn([C@H]2CC[C@@H](CO)O2)c(=O)n1 [Zalcitabine] | 93% | 105% | 89% |  |  | 
CC(C(=O)O)c1ccc2c(c1)CC(=O)c1ccccc1S2 (stereo not drawn) [Zaltoprofen] | 109% | 113% | 86% |  |  | 
CC(=O)N[C@H]1[C@H]([C@H](O)[C@H](O)CO)OC(C(=O)O)=C[C@@H]1N=C(N)N [Zanamivir] | 90% | 98% | 115% |  |  | 
COc1nc(C)cnc1NS(=O)(=O)c1cccnc1-c1ccc(-c2nnco2)cc1 [Zibotentan (ZD4054)] | 99% | 97% | 94% |  |  | 
Cc1cn([C@H]2C[C@H](N=[N+]=[N-])[C@@H](CO)O2)c(=O)[nH]c1=O [Zidovudine] | 100% | 112% | 85% |  |  | 
CC(c1cc2ccccc2s1)N(O)C(N)=O (stereo not drawn) [Zileuton] | 96% | 86% | 87% |  |  | 
Cl.O=C1Cc2cc(CCN3CCN(c4nsc5ccccc45)CC3)c(Cl)cc2N1 [Ziprasidone HCl] | 91% | 91% | 80% |  |  | 
CN(C)CCc1c[nH]c2ccc(C[C@H]3COC(=O)N3)cc12 [Zolmitriptan] | 111% | 86% | 80% |  |  | 
Cc1ccc(-c2nc3ccc(C)cn3c2CC(=O)N(C)C)cc1 [Zolpidem] | 98% | 97% | 85% |  |  | 
